From patent publication US6660762B2, “Methods and compositions to treat lung diseases” (priority 2001, dated 2003)
“Also recorded” adds a separate entry of the source. Where two headings read alike, the source gives them in different places. Marks after values point to notes of the source that are not given here.

Columns and labels:
[1] = system: C3H/HEJ mice; assay: Toxicity of aerosolized porphyrins in mice (group bodyweight); type: in vivo
Text: Toxicity of the three porphyrins were studied. Porphyrins were delivered via aerosols into mice. It is considered that beryllium-lung burdened mice will provide in vivo data for the removal of beryllium via urinary secretion tests.
Aqueous solutions of the three porphyrins were aerosolized using a constant-flow Pulmo-Mist pump and nebulizer syste and delivered into cages each housing five female 20+ week old C3H/HEJ mice over a period of twenty days. The group bodyweights of these mice were measured each morning prior to aerosol treatment. Regimens included multiple, constant dosing and dose escalation. Mice in cages receiving multiple doses of 9 mg of one of the select porphyrins began to lose weight (up to 14%) by the third day of treatment. […] Treatments with two porphyrins generally reflected lower and delayed evidence of toxicity compared to that observed with one of the select porphyrins (phthalocyanine tetrasulfonate porphyrin, meso-tetra (4-carboxyphenyl) porphyrin, meso-tetra (4-sulfonatophenyl) porphyrin). Younger mice (about 6 weeks old) were generally more tolerant than older mice, but the rank order of porphyrin toxicity was the same.

[2] = molecular target: T1, Beryllium bound to oxyhemoglobin (Be—Hb) (Homo sapiens, UniProt P68871+P69905); assay: Chelation of hemoglobin bound beryllium by porphyrins (removal of beryllium from Be-Hb); type: binding; conditions: for effect on amount of beryllium associated with hemoglobin (in words): incubation of Be-Hb with porphyrin
T1 construct: purchased Sigma H7379
Method: Beryllium bound to oxyhemoglobin (Be—Hb) was prepared as described in Section 2.1 (above). To determine if the test porphyrins were able to remove beryllium from hemoglobin, porphyrins were added to the hemoglobin solution at 2.5 times the Be concentration of the solution. One hundred μl of 7.1 mM porphyrin solution (or 100 μl of HBS for controls) was added to 1 ml of […]. This mixture was incubated at 37° C. for 30 minutes. Following incubation, the entire mixture was loaded into a Centricon YM-30 molecular weight cutoff filter. This filter retains molecules with a molecular weight >30,000 (i.e., hemoglobin) and allows smaller molecules (i.e. porphyrin, free beryllium) to pass through. The samples were centrifuged to concentrate hemoglobin on the filter and then washed with 500 μl of HBS to remove any porphyrin or beryllium trapped in the hemoglobin concentrate. Hemoglobin concentrates were collected in 100 μl of HBS according to the manufacturer's instructions. The concentrates were then diluted to 3 mls with HBS. Hemoglobin concentration of each sample was determined spectrophotometrically with Drabkin's reagent. Beryllium content of each sample was determined by ICP-AAS.

[3] = molecular target: T2, Human hemoglobin (Homo sapiens, UniProt P68871+P69905); assay: Binding of beryllium to various hemoglobins (Sephadex G-25 separation, ICP-AAS); conditions: incubation at 37° C. for 30 minutes; Be:Hb 2.5:1
T2 construct: purchased Sigma H7379
Method: These experiments used beryllium nitrate (Aldrich 46,503-8) as a soluble form of beryllium. […] This precipitate was probably an insoluble beryllium phosphate complex. Due to the insolubility of beryllium in PBS at necessary concentrations, experiments were carried out in N-2hydroxyethylpiperazine-N′-2-ethane-sulfonic acid (HEPES)-buffered saline (HBS). HEPES is commonly used as a buffer for biochemical experiments in the physiological pH range. HBS contained 10 mM HEPES, sodium chloride, and potassium chloride, pH 7.4.
Human hemoglobin (Sigma H7379) was dissolved in HBS at a concentration of 40 mg/ml. This hemoglobin was >95% methemoglobin. To reduce the iron and form oxyhemoglobin, 5 mM sodium hydrosulfite was added to the hemoglobin solution. This solution was then dialyzed overnight at 4° C. against HBS to remove residual sodium hydrosulfite. To form carboxyhemoglobin, oxyhemoglobin was gently bubbled with carbon monoxide for 5 minutes. Identity of hemoglobins was confirmed by spectrophotometry prior to experimentation.
Beryllium nitrate was added to a solution of hemoglobin at a molar ratio of 2.5:1 (B e: Hb). This mixture was incubated at 37° C. for 30 minutes. During incubation with beryllium some precipitation of hemoglobin occurred. Precipitate was removed from the samples by centrifugation. Samples of hemoglobin with no beryllium were used as negative controls. Experiments were performed on oxy-, met-, and carboxyhemoglobin.
To isolate beryllium bound to hemoglobin (Be—Hb) from free beryllium, samples were passed through a 1 cm×25 cm Sephadex G-25 column equilibrated in HBS. One milliliter fractions of column eluate were collected. These fractions were diluted to 5 ml with distilled water. The hemoglobin content of each fraction was determined by use of Drabkin's reagent. Beryllium content of each fraction was determined by inductively coupled plasma atomic absorption spectrophotometry (ICP-AAS). A flow chart of this procedure is presented as FIG. 1.

[4] = Binding of beryllium to porphyrins by proton NMR in deuterium oxide; conditions: no buffer
Method: Initial experiments utilized HBS prepared in deuterium oxide (deuterated water, D2O) to eliminate the protons of water. This was not successful as the HEPES in the buffer also contains protons that interfered with the analysis. Therefore, experiments were conducted with porphyrins 1-5 dissolved in deuterium oxide. Porphyrins were analyzed in the presence and absence of beryllium-Spectra were collected on a 500 MHz JEOL.

T1 sequence (P69905 2-142 limits assumed): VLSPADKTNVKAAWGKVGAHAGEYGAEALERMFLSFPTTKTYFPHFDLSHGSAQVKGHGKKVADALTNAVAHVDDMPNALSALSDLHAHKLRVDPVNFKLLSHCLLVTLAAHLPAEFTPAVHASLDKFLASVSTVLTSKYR
T1 sequence (P68871 2-147 limits assumed): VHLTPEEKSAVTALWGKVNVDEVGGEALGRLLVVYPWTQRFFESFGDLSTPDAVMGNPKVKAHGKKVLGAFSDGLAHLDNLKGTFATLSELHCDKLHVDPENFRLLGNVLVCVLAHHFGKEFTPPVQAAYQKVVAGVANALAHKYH
T2 sequence (P69905 2-142 limits assumed): as the sequence (P69905 2-142 limits assumed) above
T2 sequence (P68871 2-147 limits assumed): as the sequence (P68871 2-147 limits assumed) above

| Compound | toxicity / safety of aerosol delivery to lungs (in words) [1] | effect on amount of beryllium associated with hemoglobin (in words) [2] | Molar ratio (moles Be:moles Hb) Mean [3] | μg beryllium/mg hemoglobin Mean [3] | other results |
| --- | --- | --- | --- | --- | --- |
| O=C(O)c1ccc(-c2c3nc(c(-c4ccc(C(=O)O)cc4)c4ccc([nH]4)c(-c4ccc(C(=O)O)cc4)c4nc(c(-c5ccc(C(=O)O)cc5)c5ccc2[nH]5)C=C4)C=C3)cc1 [porphyrin 2, meso-tetra (4-carboxyphenyl) porphyrin] | maybe safely delivered as aerosols; also recorded: non-toxic | reduced the amount of beryllium associated with hemoglobin |  |  |  |
| O=S(=O)(O)c1ccc(-c2c3nc(c(-c4ccc(S(=O)(=O)O)cc4)c4ccc([nH]4)c(-c4ccc(S(=O)(=O)O)cc4)c4nc(c(-c5ccc(S(=O)(=O)O)cc5)c5ccc2[nH]5)C=C4)C=C3)cc1 [porphyrin 4, meso-tetra (4-sulfonatophenyl) porphyrin] | maybe safely delivered as aerosols | reduced the amount of beryllium associated with hemoglobin |  |  | toxicity / safety of aerosol delivery to lungs (in words) ([1]; listed as meso-tetra-(4-sulfonate phenyl)): non-toxic |
| Carboxyhemoglobin: oxyhemoglobin gently bubbled with carbon monoxide for 5 minutes |  |  | 1.88 moles Be:moles Hb | 0.351 μg beryllium/mg hemoglobin |  |
| Methemoglobin: Human hemoglobin (Sigma H7379), >95% methemoglobin, iron in the +III oxidation state |  |  | 0.13a moles Be:moles Hb | 0.016^a μg beryllium/mg hemoglobin |  |
| Oxyhemoglobin: Human hemoglobin reduced with sodium hydrosulfite, iron in the +II oxidation state |  |  | 2.25 moles Be:moles Hb | 0.438 μg beryllium/mg hemoglobin |  |
| hemin [porphyrin 1] |  | reduced the amount of beryllium associated with hemoglobin |  |  |  |
| magnesium phthalocyanine tetrasulfonate tetra sodium salt porphyrin [porphyrin 5] |  | reduced the amount of beryllium associated with hemoglobin |  |  | change in proton NMR spectra on addition of beryllium [4]: suggest a reaction of beryllium with the porphyrin |
| phthalocyanine tetrasulfonate [porphyrin 3] | maybe safely delivered as aerosols | reduced the amount of beryllium associated with hemoglobin |  |  | change in proton NMR spectra on addition of beryllium [4]: suggest a reaction of beryllium with the porphyrin; reduction of the amount of beryllium associated with hemoglobin ([2]; molar excess of porphyrin, 30 minutes at 37° C.): 59% |
